Laboratory results published in US20100229250A1, “TREATMENT AND PREVENTION OF ISCHEMIC BRAIN INJURY” (THE JOHNS HOPKINS UNIVERSITY, priority 2007, published 2010).
“Also recorded” adds a separate entry of the source.

Experiments:
[1] = molecular target: T1, FP receptor (Mus musculus, UniProt P43117); assay: Brain infarction (TTC staining) after transient ischemia (90-min MCAO), post-treatment with FP agonist; format: in vivo; settings: WT mice, TTC at 96 h
T1 construct: WT mice were post-treated orally with 10 μg/kg (n=10) or 100 μg/kg (n=8) latanoprost 30 min after reperfusion; endogenous in cells; host or cells: wild-type mice, whole animal (in vivo); FP-/- mice used as receptor-null control
Experimental: Transient ischemia protocol. WT (n=11) and FP^−/− (n=12) mice were subjected to MCAO for 90 min followed by 96 h of reperfusion (Ahmad et al., 2006a). Mice were placed under halothane anesthesia (3.0% for induction, 1.0% for maintenance) and ventilated with oxygen-enriched air via a nose cone. Body temperatures were maintained at 37.0±0.5° C. by a heating pad. The mice were subjected to the intraluminal filament technique to produce the MCAO model of transient focal cerebral ischemia as we have described previously (Ahmad et al., 2006a). Relative cerebral blood flow (CBF) was measured by laser-Doppler flowmetry (Moor instruments, Devon, England) with a flexible probe affixed to the skull over the parietal cortex supplied by the MCA (2 mm posterior and 6 mm lateral to bregma). […] During occlusion, mice were kept in a humidity-controlled, 32° C. chamber to help maintain a body core temperature of 37° C. […]
(§1) Post-treatment of mice with the FP agonist latanoprost. […] At 96 h after MCAO, neurological deficit scores and brain injury were measured. […]
Assessment of brain infarction. […] Infarct volume was assessed by 2,3,5-triphenyltetrazolium chloride (TTC) staining by an observer blinded to the treatments, as described previously (Ahmad et al., 2006a). […] The corrected volume of the infarcted hemisphere was calculated as: volume of contralateral hemisphere−(volume of ipsilateral hemisphere−volume of infarct).

[2] = molecular target: T1, FP receptor; assay: Neurological deficit score after transient ischemia (90-min MCAO), post-treatment with FP agonist; format: in vivo; settings: WT mice
Experimental: (§2) Transient ischemia protocol. WT (n=11) and FP^−/− (n=12) mice were subjected to MCAO for 90 min followed by 96 h of reperfusion (Ahmad et al., 2006a). Mice were placed under halothane anesthesia (3.0% for induction, 1.0% for maintenance) and ventilated with oxygen-enriched air via a nose cone. Body temperatures were maintained at 37.0±0.5° C. by a heating pad. The mice were subjected to the intraluminal filament technique to produce the MCAO model of transient focal cerebral ischemia as we have described previously (Ahmad et al., 2006a). Relative cerebral blood flow (CBF) was measured by laser-Doppler flowmetry (Moor instruments, Devon, England) with a flexible probe affixed to the skull over the parietal cortex supplied by the MCA (2 mm posterior and 6 mm lateral to bregma). […] During occlusion, mice were kept in a humidity-controlled, 32° C. chamber to help maintain a body core temperature of 37° C. After 90 min of occlusion, mice were briefly re-anesthetized, the midline was reopened, and the filament was removed to establish reperfusion. After the incision was sutured, mice were again placed in the humidity- and temperature-controlled chamber for another 6 h and finally returned to their respective cages for survival up to 96 h.
(§3) Assessment of neurological deficit score. Neurological function was measured in each mouse at 96 h after reperfusion according to the following graded scoring system, as described previously (Li et al., 2004): 0=no deficit; 1=forelimb weakness and torso turning to the ipsilateral side when held by tail; 2=circling to affected side; 3=unable to bear weight on affected side; and 4=no spontaneous locomotor activity or barrel rolling.
as §1

[3] = test system: FP receptor; assay: as above; format: in vivo, mouse; settings: FP−/− mice, 100 μg/kg orally 30 min after reperfusion, scored at 96 h, mean±S.E.M., p<0.05 vs latanoprost-treated WT
Experimental: as §2, §3, §1

T1 sequence (P43117 whole entry, the tested form may be a part): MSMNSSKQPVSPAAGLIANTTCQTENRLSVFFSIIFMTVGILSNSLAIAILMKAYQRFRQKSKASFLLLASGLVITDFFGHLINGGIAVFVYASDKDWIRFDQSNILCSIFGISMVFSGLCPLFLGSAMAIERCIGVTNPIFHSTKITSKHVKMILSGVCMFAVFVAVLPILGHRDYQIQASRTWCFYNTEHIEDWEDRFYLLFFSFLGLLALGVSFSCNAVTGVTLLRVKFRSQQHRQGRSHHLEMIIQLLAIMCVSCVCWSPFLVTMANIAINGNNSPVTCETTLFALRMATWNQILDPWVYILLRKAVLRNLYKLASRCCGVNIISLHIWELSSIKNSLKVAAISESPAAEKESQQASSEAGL

For CC(C)OC(=O)CCC/C=C\C[C@@H]1[C@@H](CC[C@@H](O)CCc2ccccc2)[C@H](O)C[C@@H]1O [latanoprost, 13,14-dihydro-17-phenyl-18,19,20-trinor-PGF2α isopropyl ester], the “brain damage (corrected infarct volume)” value ([1]; 10 μg/kg orally 30 min after reperfusion, vs vehicle) was “trend toward increased brain damage”, the “brain damage (corrected infarct volume)” value ([1]; 100 μg/kg orally 30 min after reperfusion, p<0.05 vs vehicle) was “significantly larger infarct volumes; also recorded: became significant” and the neurological deficit score ([2]; 10 μg/kg orally 30 min after reperfusion, scored at 96 h (scale 0-4), mean±S.E.M., vehicle 1.8±0.2, not significant) was 2.2±0.2. For the same molecule, the neurological deficit score ([2]; 100 μg/kg orally 30 min after reperfusion, scored at 96 h, p<0.05 vs vehicle) was “significantly increased the neurological deficit” and the neurological deficit score [3] was 1.4±0.2.
